Measured values as given in ChEMBL document CHEMBL1150882, “Nitrogen-containing furanose and pyranose analogues from Hyacinthus orientalis” (J Nat Prod, 1998).

Key:
[1] = Inhibition of rice alpha-glucosidase; design: species or system Oryza sativa
[2] = Inhibition of Caldocellum saccharolyticum beta-glucosidase; design: species or system Caldicellulosiruptor saccharolyticus
[3] = Inhibition of bovine liver beta-galactosidase; design: species or system Bos taurus
[4] = Inhibition of almond beta-glucosidase; design: species or system Prunus dulcis
[5] = Inhibition of yeast alpha-glucosidase; design: species or system Saccharomyces cerevisiae
[6] = biological target: Sucrase-isomaltase, intestinal (Rattus norvegicus) (UniProt P23739); conditions: Wistar, 1000 uM
Sequence of Sucrase-isomaltase, intestinal (Rattus norvegicus) (P23739 1-1013 limits assumed): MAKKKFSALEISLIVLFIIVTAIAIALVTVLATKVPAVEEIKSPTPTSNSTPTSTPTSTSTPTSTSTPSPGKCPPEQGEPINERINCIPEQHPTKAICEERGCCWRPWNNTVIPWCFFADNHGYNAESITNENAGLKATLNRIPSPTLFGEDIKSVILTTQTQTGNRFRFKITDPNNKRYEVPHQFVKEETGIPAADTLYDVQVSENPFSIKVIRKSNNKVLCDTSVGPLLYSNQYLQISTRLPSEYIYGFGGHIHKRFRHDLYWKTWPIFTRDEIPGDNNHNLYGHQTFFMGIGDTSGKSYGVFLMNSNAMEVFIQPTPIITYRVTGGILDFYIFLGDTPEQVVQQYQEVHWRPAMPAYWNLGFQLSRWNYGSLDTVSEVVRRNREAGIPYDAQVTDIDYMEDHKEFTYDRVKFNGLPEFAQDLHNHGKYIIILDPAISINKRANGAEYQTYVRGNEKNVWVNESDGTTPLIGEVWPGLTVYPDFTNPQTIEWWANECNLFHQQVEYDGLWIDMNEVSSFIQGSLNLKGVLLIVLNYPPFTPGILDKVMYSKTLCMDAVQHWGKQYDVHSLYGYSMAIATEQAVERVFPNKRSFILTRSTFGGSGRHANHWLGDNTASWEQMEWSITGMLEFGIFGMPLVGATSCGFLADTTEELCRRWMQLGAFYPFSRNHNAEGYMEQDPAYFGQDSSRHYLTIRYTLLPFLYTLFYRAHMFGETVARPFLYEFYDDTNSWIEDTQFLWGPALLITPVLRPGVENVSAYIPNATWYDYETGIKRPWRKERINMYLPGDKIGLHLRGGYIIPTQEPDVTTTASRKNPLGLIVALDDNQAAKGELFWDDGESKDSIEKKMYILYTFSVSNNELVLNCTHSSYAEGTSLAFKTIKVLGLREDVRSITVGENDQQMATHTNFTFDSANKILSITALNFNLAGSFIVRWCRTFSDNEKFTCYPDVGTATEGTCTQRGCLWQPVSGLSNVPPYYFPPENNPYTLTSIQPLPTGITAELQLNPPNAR
Sequence of Sucrase-isomaltase, intestinal (Rattus norvegicus) (P23739 1014-1841 limits assumed): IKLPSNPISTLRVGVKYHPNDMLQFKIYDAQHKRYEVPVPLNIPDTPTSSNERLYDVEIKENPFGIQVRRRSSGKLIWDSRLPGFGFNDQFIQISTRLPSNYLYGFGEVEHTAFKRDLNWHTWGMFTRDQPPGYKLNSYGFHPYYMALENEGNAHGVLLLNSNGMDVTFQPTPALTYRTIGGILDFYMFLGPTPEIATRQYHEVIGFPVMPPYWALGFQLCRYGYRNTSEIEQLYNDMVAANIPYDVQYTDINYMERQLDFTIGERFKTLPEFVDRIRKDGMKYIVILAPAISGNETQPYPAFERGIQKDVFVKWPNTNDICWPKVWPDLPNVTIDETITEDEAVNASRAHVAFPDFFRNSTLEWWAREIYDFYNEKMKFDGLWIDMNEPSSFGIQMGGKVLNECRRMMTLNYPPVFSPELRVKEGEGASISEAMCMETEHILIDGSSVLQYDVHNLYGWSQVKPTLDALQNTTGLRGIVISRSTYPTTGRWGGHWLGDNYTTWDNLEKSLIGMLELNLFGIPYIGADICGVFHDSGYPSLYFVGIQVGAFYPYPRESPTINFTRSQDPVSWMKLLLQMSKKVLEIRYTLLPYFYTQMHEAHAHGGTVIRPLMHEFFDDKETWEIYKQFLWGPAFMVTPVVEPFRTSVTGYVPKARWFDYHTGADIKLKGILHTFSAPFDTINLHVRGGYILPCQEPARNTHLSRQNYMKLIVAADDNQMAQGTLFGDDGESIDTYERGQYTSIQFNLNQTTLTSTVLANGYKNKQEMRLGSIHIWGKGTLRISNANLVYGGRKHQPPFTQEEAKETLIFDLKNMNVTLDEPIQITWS
Description: Inhibition of Wistar rat intestinal sucrase at 1000 uM

[7] = biological target: Sucrase-isomaltase, intestinal (Rattus norvegicus, UniProt P23739); experiment: Inhibition of Wistar rat intestinal sucrase
Sequence of Sucrase-isomaltase, intestinal (P23739 1-1013 limits assumed): as the sequence (P23739 1-1013 limits assumed) above
Sequence of Sucrase-isomaltase, intestinal (P23739 1014-1841 limits assumed): as the sequence (P23739 1014-1841 limits assumed) above

[8] = biological target: Lactase/phlorizin hydrolase (Rattus norvegicus, UniProt Q02401); experiment: Inhibition of Wistar rat intestinal lactase
Sequence of Lactase/phlorizin hydrolase (Q02401 868-1928 limits assumed): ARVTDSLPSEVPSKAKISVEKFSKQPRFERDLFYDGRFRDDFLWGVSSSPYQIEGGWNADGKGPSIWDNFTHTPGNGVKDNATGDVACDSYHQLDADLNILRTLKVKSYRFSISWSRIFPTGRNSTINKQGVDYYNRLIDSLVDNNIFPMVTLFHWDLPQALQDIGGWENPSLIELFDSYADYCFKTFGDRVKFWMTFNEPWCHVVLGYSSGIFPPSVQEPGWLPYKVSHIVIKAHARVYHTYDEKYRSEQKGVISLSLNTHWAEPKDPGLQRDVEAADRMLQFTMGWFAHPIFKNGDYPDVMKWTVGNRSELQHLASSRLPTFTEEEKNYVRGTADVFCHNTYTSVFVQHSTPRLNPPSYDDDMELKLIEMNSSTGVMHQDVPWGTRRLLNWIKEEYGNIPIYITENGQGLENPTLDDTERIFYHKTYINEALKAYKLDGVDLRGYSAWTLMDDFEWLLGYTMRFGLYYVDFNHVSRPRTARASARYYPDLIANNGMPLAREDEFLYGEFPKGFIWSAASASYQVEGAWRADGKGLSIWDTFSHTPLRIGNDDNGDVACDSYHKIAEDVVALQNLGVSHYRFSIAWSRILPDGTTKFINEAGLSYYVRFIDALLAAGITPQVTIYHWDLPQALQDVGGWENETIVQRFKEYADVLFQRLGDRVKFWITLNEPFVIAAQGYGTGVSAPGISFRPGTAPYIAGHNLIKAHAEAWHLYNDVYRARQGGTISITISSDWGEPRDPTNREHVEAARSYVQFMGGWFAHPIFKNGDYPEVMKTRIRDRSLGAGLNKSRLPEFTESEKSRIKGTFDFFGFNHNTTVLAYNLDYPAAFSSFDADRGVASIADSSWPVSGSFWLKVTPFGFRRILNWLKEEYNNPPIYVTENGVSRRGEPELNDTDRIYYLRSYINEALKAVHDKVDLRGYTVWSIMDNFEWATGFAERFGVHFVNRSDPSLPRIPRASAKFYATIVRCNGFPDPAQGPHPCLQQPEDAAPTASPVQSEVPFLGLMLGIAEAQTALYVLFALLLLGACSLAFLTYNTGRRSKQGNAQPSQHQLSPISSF

[9] = biological target: T1, Uncharacterized protein (Sus scrofa, UniProt I3LIR5); experiment: Inhibition of pig kidney alpha alpha-trehalase
T1 sequence (I3LIR5 whole entry): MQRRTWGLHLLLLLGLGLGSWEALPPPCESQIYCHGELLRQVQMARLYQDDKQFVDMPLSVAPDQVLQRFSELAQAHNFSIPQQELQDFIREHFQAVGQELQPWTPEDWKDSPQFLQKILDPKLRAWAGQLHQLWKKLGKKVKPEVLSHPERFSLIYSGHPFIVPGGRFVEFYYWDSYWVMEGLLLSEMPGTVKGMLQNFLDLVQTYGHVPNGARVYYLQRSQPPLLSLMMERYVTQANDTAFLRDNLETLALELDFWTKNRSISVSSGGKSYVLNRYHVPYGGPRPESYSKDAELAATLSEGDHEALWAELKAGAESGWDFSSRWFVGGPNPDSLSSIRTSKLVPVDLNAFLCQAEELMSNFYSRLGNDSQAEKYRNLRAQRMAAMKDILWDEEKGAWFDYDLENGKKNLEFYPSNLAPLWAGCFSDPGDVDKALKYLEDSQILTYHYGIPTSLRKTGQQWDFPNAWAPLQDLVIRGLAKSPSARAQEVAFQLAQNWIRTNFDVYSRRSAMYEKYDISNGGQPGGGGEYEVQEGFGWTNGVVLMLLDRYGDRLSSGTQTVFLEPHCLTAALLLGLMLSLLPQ

[10] = Inhibition of Wistar rat intestinal alpha alpha-trehalase
[11] = biological target: Sucrase-isomaltase, intestinal (Rattus norvegicus) (UniProt P23739); conditions: Wistar, 1000 uM; remark: listed apart in the source
Description: Inhibition of Wistar rat intestinal isomaltase at 1000 uM

[12] = biological target: Lysosomal alpha-glucosidase (Rattus norvegicus) (UniProt Q6P7A9); conditions: Wistar, 1000 uM
Sequence of Lysosomal alpha-glucosidase (Rattus norvegicus) (Q6P7A9 whole entry): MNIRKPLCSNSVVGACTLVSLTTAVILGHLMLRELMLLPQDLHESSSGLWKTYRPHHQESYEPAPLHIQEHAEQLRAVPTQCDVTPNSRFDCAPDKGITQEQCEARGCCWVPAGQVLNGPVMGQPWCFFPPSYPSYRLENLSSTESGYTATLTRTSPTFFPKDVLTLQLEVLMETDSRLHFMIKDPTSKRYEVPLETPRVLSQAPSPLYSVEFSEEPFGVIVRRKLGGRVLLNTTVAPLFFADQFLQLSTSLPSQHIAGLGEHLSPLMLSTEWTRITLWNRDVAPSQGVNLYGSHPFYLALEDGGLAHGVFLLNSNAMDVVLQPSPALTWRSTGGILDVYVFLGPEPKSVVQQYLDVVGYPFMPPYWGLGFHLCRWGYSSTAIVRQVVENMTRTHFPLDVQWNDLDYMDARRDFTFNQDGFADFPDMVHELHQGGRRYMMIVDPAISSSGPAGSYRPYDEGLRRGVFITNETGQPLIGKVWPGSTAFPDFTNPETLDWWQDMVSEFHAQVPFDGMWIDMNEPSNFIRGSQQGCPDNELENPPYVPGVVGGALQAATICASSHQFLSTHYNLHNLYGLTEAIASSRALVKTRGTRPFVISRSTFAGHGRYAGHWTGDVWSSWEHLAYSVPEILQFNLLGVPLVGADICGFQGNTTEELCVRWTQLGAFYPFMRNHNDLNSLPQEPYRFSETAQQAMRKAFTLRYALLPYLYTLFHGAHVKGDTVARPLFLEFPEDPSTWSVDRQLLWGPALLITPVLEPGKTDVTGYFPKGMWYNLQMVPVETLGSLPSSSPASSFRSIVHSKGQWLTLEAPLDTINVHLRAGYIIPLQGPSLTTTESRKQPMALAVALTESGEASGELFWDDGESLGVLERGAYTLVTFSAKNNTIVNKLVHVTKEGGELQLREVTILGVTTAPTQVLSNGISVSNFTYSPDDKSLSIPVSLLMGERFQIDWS
Description: Inhibition of Wistar rat liver lysosomal alpha-glucosidase at 1000 uM

[13] = biological target: T2, Tissue alpha-L-fucosidase (Bos taurus, UniProt Q2KIM0); experiment: Inhibition of bovine epididymis alpha-L-fucosidase at 1000 uM
T2 sequence (Q2KIM0 whole entry): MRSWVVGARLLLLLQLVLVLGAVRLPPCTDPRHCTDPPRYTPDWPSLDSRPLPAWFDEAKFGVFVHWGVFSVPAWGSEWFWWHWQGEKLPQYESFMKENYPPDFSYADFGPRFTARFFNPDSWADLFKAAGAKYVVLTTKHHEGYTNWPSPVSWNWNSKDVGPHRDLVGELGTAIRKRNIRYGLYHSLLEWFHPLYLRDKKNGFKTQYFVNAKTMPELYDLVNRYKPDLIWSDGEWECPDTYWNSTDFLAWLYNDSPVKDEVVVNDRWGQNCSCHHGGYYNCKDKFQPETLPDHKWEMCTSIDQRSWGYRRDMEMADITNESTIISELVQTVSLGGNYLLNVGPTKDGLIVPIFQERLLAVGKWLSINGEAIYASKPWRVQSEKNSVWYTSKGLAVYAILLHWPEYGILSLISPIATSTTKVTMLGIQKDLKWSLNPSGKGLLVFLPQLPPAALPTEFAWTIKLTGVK

[14] = test system: Oryza sativa; conditions: 1000 uM
Description: Inhibition of rice alpha-glucosidase at 1000 uM

[15] = biological target: Lysosomal alpha-glucosidase (Rattus norvegicus) (UniProt Q6P7A9); conditions: Wistar, 1000 uM; remark: listed apart in the source
Description: Inhibition of Wistar rat intestinal maltase at 1000 uM

[16] = test system: Caldicellulosiruptor saccharolyticus; conditions: 1000 uM
Description: Inhibition of Caldocellum saccharolyticum beta-glucosidase at 1000 uM

[17] = species on record: Bos taurus; conditions: 1000 uM
Description: Inhibition of bovine liver beta-galactosidase at 1000 uM

[18] = biological target: Lactase/phlorizin hydrolase (Rattus norvegicus) (UniProt Q02401); conditions: Wistar, 1000 uM
Sequence of Lactase/phlorizin hydrolase (Rattus norvegicus) (Q02401 868-1928 limits assumed): as the sequence (Q02401 868-1928 limits assumed) above
Description: Inhibition of Wistar rat intestinal lactase at 1000 uM

[19] = biological target: T3, Uncharacterized protein (Sus scrofa) (UniProt I3LIR5); conditions: 1000 uM
T3 sequence (whole entry): T1 sequence (I3LIR5 whole entry)
Description: Inhibition of pig kidney alpha alpha-trehalase at 1000 uM

[20] = species on record: Rattus norvegicus; conditions: Wistar, 1000 uM
Description: Inhibition of Wistar rat intestinal alpha alpha-trehalase at 1000 uM

| IC50 [1] [µM] | IC50 [2] [µM] | IC50 [3] [µM] | Ki [4] [µM] | Ki [5] [µM] | inhibition [6] [%] | IC50 [7] [µM] | IC50 [8] [µM] | IC50 [9] [µM] | IC50 [10] [µM] | inhibition [11] [%] | inhibition [12] [%] | IC50 [13] [µM] | inhibition [14] [%] | inhibition [15] [%] | inhibition [16] [%] | inhibition [17] [%] | inhibition [18] [%] | inhibition [19] [%] | inhibition [20] [%] | SMILES |
| --- | --- | --- | --- | --- | --- | --- | --- | --- | --- | --- | --- | --- | --- | --- | --- | --- | --- | --- | --- | --- |
| 200 | 11 | 2.5 | 10 | 7 | < 50 |  |  |  |  |  |  |  |  |  |  |  |  |  |  | OC[C@H]1N[C@H](CO)[C@@H](O)[C@@H]1O |
| 130 | 3.8 | 4.4 | 1.5 | 54 |  | 300 | 4 | 5 | 2 | < 50 | < 50 |  |  |  |  |  |  |  |  | OCC(O)[C@H]1N[C@H](CO)[C@@H](O)[C@@H]1O (mixture of isomers) |
|  |  |  |  |  | < 50 |  |  |  |  | < 50 | < 50 | 50 | < 50 | < 50 | < 50 | < 50 | < 50 | < 50 | < 50 | OCC[C@H]1N[C@@H](CO)[C@H](O)[C@H]1O |
| 2.2 | 380 | 60 |  |  |  | 11 | 320 |  | 380 | < 50 |  |  |  |  |  |  |  | < 50 |  | OCC[C@H]1N[C@H](CO)[C@@H](O)[C@@H]1O |
